Results taken from PubChem BioAssay AID2060491 (Molecular Pharmacology Branch, DTP, NCI, 2025).
“And” between values parts separate entries of the source, which are not always exact repeats. Equal entries are not always repeated.

Tested on: 857933-349-R-J2-PDC complex spheroids, viability
Assay: Anticancer human tumor 857933-349-R-J2-PDC patient-derived colon adenocarcinoma cell line growth inhibition [GQUAD]
Settings: for viability, T/C: stronger effect = lower value
Excerpt: DNA G-quadruplex Stabilizer Agents in Combinations in Complex Spheroids
A high-throughput screen of multi-cell type tumor spheroids was designed to identify active combinations of DNA G-quadruplex stabilizer agents and targeted small molecules. Complex spheroids include a stromal component modeled by human endothelial cells (HUVEC) and fibroblasts modeled by human mesenchymal stem cells (MSCs). The concentration ranges selected for each drug and investigational agent were based upon clinically achievable concentrations if the clinical Cmax of the agent was known.
Compounds. The drugs and investigational agents: pidnarulex (CX-5461; NSC782164), APTO-253 (NSC789042), BRACO-19 (NSC847499), peposertib (NSC802822), ceralasertib (NSC780249), elimusertib (NSC800525), camonsertib (NSC841442), AZD-1390 (NSC803789), olaparib (NSC753686), talazoparib (NSC767125), ART-558 (NSC835418), sotorasib (NSC818433), MRTX-1133 (NSC836407), SN-38 (NSC673596), topotecan (NSC609699), etoposide (NSC141540), doxorubicin (NSC123127), gemcitabine (NSC613327), 5-fluorouracil (NSC19893), paclitaxel (NSC125973), vemurafenib (NSC761431), panobinostat (NSC761190), R-306465 (JNJ-16241199; NSC773264), adavosertib (NSC754352), TP-3654 (NSC805149), carboplatin (NSC241240), KSQ-4279 (NSC840948), and staurosporine (NSC755774) were obtained from the National Cancer Institute (NCI) Developmental Therapeutics Program Chemical Repository (34). The FDA-approved anticancer drug set is available from the NCI Developmental Therapeutics Program. […] The stock solutions were prepared in dimethyl sulfoxide (DMSO, Sigma-Aldrich, St. Louis, MO, cat. D2650) at 800-fold the tested concentration and stored at -70 degrees C prior to their use. All drugs and investigational agents were tested over a range starting from a high concentration at or near the clinical Cmax and decreasing in half-log increments. If the clinical Cmax for an agent had not been determined, the highest concentration tested was 10 microM.
2.3 Cell Culture. All cells were maintained in an incubator at 37 degrees C and 5% CO2 with 95% humidity. The PDC lines were cultured according to standard operating procedures established by the NCI PDMR. All PDCs were thawed and cultured in Matrigel-coated flasks prepared with a working solution of 1X Ham's F-12 nutrient mix, without supplementation (Invitrogen, cat. 11765054), 100 U/mL penicillin-streptomycin (Invitrogen, cat. 15140122), and 2.5% Matrigel (Corning Inc., cat. 354248) for the first three passages. The 857933-349-R-J2-PDC line was cultured in 6C/Colon 1B media, which includes advanced DMEM/F-12 (Thermo Fisher Scientific, cat. 12634028), 10 mM HEPES (Thermo Fisher Scientific, cat. 15630080), 1X GlutaMAX supplement (Thermo Fisher Scientific, cat. 35050061), 0.1 mg/mL primocin (InvivoGen, cat. ant-pm-2), 10% defined fetal bovine serum, heat inactivated (HyClone Laboratories Inc., cat. SH30070.03HI), 50% L-WRN conditioned media (ATCC, cat. CRL-3276), 1.25 mM N-Acetyl-L-cysteine (Sigma-Aldrich, cat. A9165), 10 mM nicotinamide (Sigma-Aldrich, cat. N0636), 1X B-27 supplement (Thermo Fisher Scientific, cat. 17504044), 1X N-2 supplement (Thermo Fisher Scientific, cat. 17502048), 10 microM Y-27632 dihydrochloride (Tocris Bioscience, cat. 1254), and 50 ng/mL human EGF recombinant protein (Thermo Fisher Scientific, cat. PHG0311). The 485176-168-R4-J1-PDC line was cultured in Panc media, which includes all 6C/Colon 1B media components plus 100 ng/mL human FGF-10 (Thermo Fisher Scientific, cat. 100-26), 500 nM SB-431542 (Selleckchem, cat. S1067), and gastrin (Tocris, cat. 3006).
[…]

[1] = compound alone, run of 02/20/2024
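Also: spheroids exposed to compounds for one week before readout.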
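For viability, T/C in this document: percent viability relative to vehicle DMSO wells taken as 100%.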

SMILES: CCc1c2c(nc3ccc(O)cc13)-c1cc3c(c(=O)n1C2)COC(=O)[C@]3(O)CC + Cc1[nH]c2ccc(F)cc2c1-c1nc2c3cccnc3c3ncccc3c2[nH]1
- IC50 (curve of first compound, second compound 0.0316 µM): 8.64 nM
- IC50 (curve of first compound, second compound 0.1 µM): 5.42 nM
- IC50 (curve of first compound, second compound 0.316 µM): 9.75 nM
- IC50 (curve of first compound, second compound 1 µM): 8.5 nM
- IC50 (curve of first compound, second compound 3.16 µM): 9.46 nM
- IC50 (curve of first compound, second compound 10 µM): 8.53 nM
- viability, T/C (second compound 0.0316 µM, first compound 0.000999 µM): 79.3%
- viability, T/C (second compound 0.0316 µM, first compound 0.00316 µM): 63%
- viability, T/C (second compound 0.0316 µM, first compound 0.00999 µM): 51.5%
- viability, T/C (second compound 0.0316 µM, first compound 0.0316 µM): 24.8%
- viability, T/C (second compound 0.0316 µM, first compound 0.0999 µM): 14.7%
- viability, T/C (second compound 0.0316 µM, first compound 0.316 µM): 12.2%
- viability, T/C (second compound 0.1 µM, first compound 0.000999 µM): 80.2%
- viability, T/C (second compound 0.1 µM, first compound 0.00316 µM): 54.5%
- viability, T/C (second compound 0.1 µM, first compound 0.00999 µM): 45.5%
- viability, T/C (second compound 0.1 µM, first compound 0.0316 µM): 26.5%
- viability, T/C (second compound 0.1 µM, first compound 0.0999 µM): 15.3%
- viability, T/C (second compound 0.1 µM, first compound 0.316 µM): 11.1%
- viability, T/C (second compound 0.316 µM, first compound 0.000999 µM): 73.5%
- viability, T/C (second compound 0.316 µM, first compound 0.00316 µM): 72.6%
- viability, T/C (second compound 0.316 µM, first compound 0.00999 µM): 47.9%
- viability, T/C (second compound 0.316 µM, first compound 0.0316 µM): 25%
- viability, T/C (second compound 0.316 µM, first compound 0.0999 µM): 15.4%
- viability, T/C (second compound 0.316 µM, first compound 0.316 µM): 11.4%
- viability, T/C (second compound 1 µM, first compound 0.000999 µM): 74.8%
- viability, T/C (second compound 1 µM, first compound 0.00316 µM): 63.2%
- viability, T/C (second compound 1 µM, first compound 0.00999 µM): 49.8%
- viability, T/C (second compound 1 µM, first compound 0.0316 µM): 24.4%
- viability, T/C (second compound 1 µM, first compound 0.0999 µM): 16.6%
- viability, T/C (second compound 1 µM, first compound 0.316 µM): 14.7%
- viability, T/C (second compound 3.16 µM, first compound 0.000999 µM): 80.5%
- viability, T/C (second compound 3.16 µM, first compound 0.00316 µM): 60.1%
- viability, T/C (second compound 3.16 µM, first compound 0.00999 µM): 55.9%
- viability, T/C (second compound 3.16 µM, first compound 0.0316 µM): 27.4%
- viability, T/C (second compound 3.16 µM, first compound 0.0999 µM): 15.7%
- viability, T/C (second compound 3.16 µM, first compound 0.316 µM): 13%
- viability, T/C (second compound 10 µM, first compound 0.000999 µM): 80.7%
- viability, T/C (second compound 10 µM, first compound 0.00316 µM): 54.5%
- viability, T/C (second compound 10 µM, first compound 0.00999 µM): 59.2%
- viability, T/C (second compound 10 µM, first compound 0.0316 µM): 28.1%
- viability, T/C (second compound 10 µM, first compound 0.0999 µM): 18.7%
- viability, T/C (second compound 10 µM, first compound 0.316 µM): 14.6%

SMILES: Cc1cnc(CNC(=O)c2c(=O)c3ccc(N4CCCN(C)CC4)nc3n3c2sc2ccccc23)cn1
- viability, T/C (compound 0.0316 µM): 92.5% [middle of 12 runs]
- viability, T/C (compound 0.1 µM): 69.2% [middle of 11 runs]
- viability, T/C (compound 0.316 µM): 26.9% [middle of 12 runs]
- viability, T/C (compound 1 µM): 5.05% [middle of 12 runs]
- viability, T/C (compound 3.16 µM): 2.9% [middle of 12 runs]
- viability, T/C (compound 10 µM): 1.41% [middle of 12 runs]
- IC50 [1]: 169 nM [middle of 10 runs]

SMILES: O=C(NO)c1cnc(N2CCN(S(=O)(=O)c3ccc4ccccc4c3)CC2)nc1
- viability, T/C (compound 0.0316 µM): 112% and 103% and 107%
- viability, T/C (compound 0.1 µM): 105% and 103% and 92.6%
- viability, T/C (compound 0.316 µM): 104% and 103% and 82.3%
- viability, T/C (compound 1 µM): 75.6% and 75% and 19.8%
- viability, T/C (compound 3.16 µM): 0.92% and 0.99% and 0.08%
- viability, T/C (compound 10 µM): 0.38% and 0.52% and 0.08%
- IC50 (curve of compound): 1490 nM and 1480 nM and 570 nM

SMILES: CC[C@@]1(O)C(=O)OCc2c1cc1n(c2=O)Cc2cc3c(CN(C)C)c(O)ccc3nc2-1
- viability, T/C (compound 0.000999 µM): 98.7% and 105% and 103%
- viability, T/C (compound 0.00316 µM): 82.7% and 104% and 89%
- viability, T/C (compound 0.00999 µM): 92.6% and 97.9% and 98.2%
- viability, T/C (compound 0.0316 µM): 70.4% and 96.6% and 71.6%
- viability, T/C (compound 0.0999 µM): 52.3% and 67.8% and 57.9%
- viability, T/C (compound 0.316 µM): 40.8% and 48.1% and 34.1%
- IC50 (curve of compound): 115 nM and 282 nM and 138 nM

SMILES: Cn1ncnc1[C@H]1c2n[nH]c(=O)c3cc(F)cc(c23)N[C@@H]1c1ccc(F)cc1
- viability, T/C (compound 0.000999 µM): 102% and 99.8% and 101%
- viability, T/C (compound 0.00316 µM): 99.8% and 104% and 94%
- viability, T/C (compound 0.00999 µM): 99.8% and 105% and 98.9%
- viability, T/C (compound 0.0316 µM): 94.3% and 104% and 94.9%
- viability, T/C (compound 0.0999 µM): 97.9% and 101% and 106%
- viability, T/C (compound 0.316 µM): 96.8% and 101% and 85.9%
- IC50 (curve of compound): > 316 nM

SMILES: Cc1[nH]c2ccc(F)cc2c1-c1nc2c3cccnc3c3ncccc3c2[nH]1
- viability, T/C (compound 0.0316 µM): 106% [middle of 12 runs]
- viability, T/C (compound 0.1 µM): 107% [middle of 12 runs]
- viability, T/C (compound 0.316 µM): 103% [middle of 12 runs]
- viability, T/C (compound 1 µM): 104% [middle of 12 runs]
- viability, T/C (compound 3.16 µM): 92.1% [middle of 12 runs]
- viability, T/C (compound 10 µM): 95.5% [middle of 12 runs]
- IC50 [1]: > 10000 nM
- IC50 (compound alone, run of 02/26/2024): > 10000 nM
